Entries after “also recorded” stand apart in the source; their conditions may differ. Where no end group is shown, it is not given here.
Experiments:
Type in all cases: cell-based
rat secretin receptor = target: T1, rat secretin receptor (Rattus norvegicus, UniProt P23811); experiment: cAMP response in COS-7 cells transfected with the rat secretin receptor; conditions: PTH(1–14) 100 mM
T1 construct: expressed in transfected cells; host or cells: COS-7, transient
Method: FIG. 6. Specificity of the Truncated Ligand and PTH Receptor. COS-7 cells transiently transfected with either rWT-HA (A), rΔNt (B), or the intact rat secretin receptor (C), were treated with the indicated peptides for 60 min at 22° C., and the resulting intracellular cAMP levels were quantified by RIA. […] 1 mM and secretin(1–13), 100 mM. Shown are data (mean±s.e.m.) from one experiment performed in duplicate, and this was repeated twice more with equivalent results.
(§1) Intracellular cyclic AMP: Transfected COS-7 or HKRK-B7 cells were rinsed with 500 ml of binding buffer, (50 mM Tris-HCl, pH 7.7, 100 mM NaCl, 5 mM KCl, 2 mM CaC12, 5% heat-inactivated horse serum, 0.5% heat-inactivated fetal bovine serum) and 200 ml of IBMX buffer (DMEM containing 2 mM IBMX, 1 mg/ml bovine serum albumin, 35 mM Hepes-NaOH, pH 7.4) and […] of binding buffer or binding buffer containing various amounts of peptide were added. The plates were incubated for 60 minutes at room temperature. The buffer was then withdrawn and the cells were frozen on dry ice, treated with 0.5 ml of 50 mM HCl, and refrozen. After the thawing, the lysate was diluted 30-fold in dH20 and an aliquot was analyzed for cAMP content by determined radioimmunoassay using unlabeled cAMP as a standard.
In order to test whether PTH(1–14) and rΔNt retained the appropriate recognition specificity for the corresponding parent ligand, cross-reactivity experiments were done using secretin ligands and the cloned rat secretin receptor. […] Cells expressing rΔNt responded to PTH(1–34) and PTH(1–14) but not to secretin(1–27) (1 mM) or secretin(1–13) ([…]) (FIG. 5B). Thus, the recognition specificity of PTH(1–14) and rΔNt appear to replicate that of the intact parent molecules. No evidence for relaxed specificity was detected in these studies (FIG. 6).

[1] = test system: truncated rat PTH-1 receptor (rΔNt); experiment: cAMP response in COS-7 cells transiently transfected with truncated rat PTH-1 receptor (rΔNt); conditions: COS-7 cells, cAMP
Source text: (§2) FIG. 4. PTH Responses of Intact and Truncated PTH-1 Receptors in COS-7 Cells. Shown at the top are schematics of the intact (A) and truncated (B) rat PTH-1 receptors used for transient transfection of COS-7 cells, and subsequent cAMP response assays. The conserved extracellular cysteine residues are depicted as open circles and numbered according to sequence position, and the nine amino acids of the epitope tag (HA) in rWT-HA are shaded. The tics at residue 26 and 181 indicate the endpoints of the deletion in rΔNt. Based on the predicted signal peptide cleavage site at Ala-22, residues 23–25 in rΔNt are joined to residue 182. The cAMP responses of COS-7 cells expressing the intact receptor (C) and rΔNt (D) to rPTH(1–34) (J) or rPTH(1–14) (C) are also shown. The graphs show combined data (mean±s.e.m.) from five separate experiments, each performed in duplicate. […]
(§3) FIG. 6. Specificity of the Truncated Ligand and PTH Receptor. COS-7 cells transiently transfected with either rWT-HA (A), rΔNt (B), or the intact rat secretin receptor (C), were treated with the indicated peptides for 60 min at 22° C., and the resulting intracellular cAMP levels were quantified by RIA. Concentration of peptides present during the incubations were: rPTH(1–34), 0.1 mM; rPTH(1–14) 100 mM; secretin(1–27). […] Shown are data (mean±s.e.m.) from one experiment performed in duplicate, and this was repeated twice more with equivalent results.
(§4) For studies with the intact and truncated rat PTH-1 receptors, transient transfections of COS-7 cells were performed using DEAE-dextran as described previously (Bergwitz, C., et al., J. Biol. Chem. 272:28861–28868)). The construction and initial characterization of the pCDNA-1 based plasmids encodin either the intact or truncated rat PTH-1 receptor has been described previously (Lee, C., et al., Endocrinology 135(4):1488–1495)). […] The truncated rat PTH-1 receptor (rΔNt) is deleted for exons E1 through exon G (residues 26 to 181). Assuming that signal peptidase cleavage occurs between Ala-22 and Tyr-23 (Nielsen, H., et al., Protein Engineering 10:1–6 (1997)), rΔNt is predicted to have for its N-terminus residues Dautzenberg, F., et al., Proc. Natl. Acad. Sci. 95:4941–4946 (1998); Holtmann, M., et al., J. Biol. Chem. 270:14394–14398 (1995); DeAlmeida, V. and Mayo, K., Mol. Endo. 12:750–765 (1998)) joined to Glu-182 (FIG. 3B). COS-7 cells were transfected in 24-well plates when the cells were 85 to 95% of confluency, using 200 ng of plasmid DNA that was purified by cesium chloride/ethidium bromide gradient centrifugation for each well. Assays were conducted 72 to 96 hours after transfection. Under these conditions about ˜20% of the COS-7 cells become transfected and express about 5×10^6 surface PTH receptors per cell (Bergwitz, C., et al., J. Biol. Chem. 272:28861–28868)).
as §1
(§5) Experiments utilized COS-7 cells transfected with either the intact rat PTH-1 receptor (rWT-HA, FIG. 4A) or a truncated rat PTH-1 receptor with most of the amino-terminal extracellular domain deleted (rΔNt, FIG. 4B).

[2] = target: T2, truncated rat PTH-1 receptor (rΔNt) (Rattus norvegicus, UniProt P25961, E586G); experiment: as above; conditions: for cAMP response of cells expressing rΔNt (in words): secretin(1–27) 1 mM
T2 construct: contains an open reading frame encoding a protein of about 435 amino acid residues; expressed in transfected cells; host or cells: COS-7, transient (DEAE-dextran), pCDNA-1 based plasmid
T2 sequence (P25961 with tags, fused parts or gaps E586G): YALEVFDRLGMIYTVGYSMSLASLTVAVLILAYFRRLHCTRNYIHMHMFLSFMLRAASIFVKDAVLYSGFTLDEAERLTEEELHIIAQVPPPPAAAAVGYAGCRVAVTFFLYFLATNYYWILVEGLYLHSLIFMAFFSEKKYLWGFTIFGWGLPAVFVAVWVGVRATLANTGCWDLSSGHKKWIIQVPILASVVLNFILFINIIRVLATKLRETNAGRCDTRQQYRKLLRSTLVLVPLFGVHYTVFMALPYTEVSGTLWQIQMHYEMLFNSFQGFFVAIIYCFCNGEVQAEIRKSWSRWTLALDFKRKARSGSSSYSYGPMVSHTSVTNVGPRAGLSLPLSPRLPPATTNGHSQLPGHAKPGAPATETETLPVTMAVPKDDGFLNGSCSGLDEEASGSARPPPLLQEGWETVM
Source text: as §2, §3, §4, §1, §5

T1 sequence (P23811 26-449): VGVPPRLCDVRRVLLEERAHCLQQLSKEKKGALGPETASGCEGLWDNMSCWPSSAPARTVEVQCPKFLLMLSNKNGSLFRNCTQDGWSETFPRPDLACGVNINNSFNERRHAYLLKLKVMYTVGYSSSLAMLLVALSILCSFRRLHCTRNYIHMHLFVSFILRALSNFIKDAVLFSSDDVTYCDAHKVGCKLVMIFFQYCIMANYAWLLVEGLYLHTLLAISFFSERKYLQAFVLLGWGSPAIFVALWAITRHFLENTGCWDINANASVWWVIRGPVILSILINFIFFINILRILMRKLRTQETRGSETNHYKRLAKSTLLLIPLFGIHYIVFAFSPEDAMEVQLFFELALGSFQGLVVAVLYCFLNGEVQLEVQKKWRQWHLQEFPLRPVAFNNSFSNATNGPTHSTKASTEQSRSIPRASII

Row | Compound | cAMP response of secretin receptor cells (in words) (rat secretin receptor) | decrease in potency with rΔNt as compared to potency with rWT-HA [1] [fold] | greater potency with rΔNt in comparison to the potency of PTH(1–14) ([2]; COS-7 cells, cAMP) [fold] | cAMP response of cells expressing rΔNt (in words) [2] | potency/activity with rΔNt compared with rWT-HA (in words) [1] | potency relative to PTH(1–34) with rΔNt ([2]; COS-7 cells transfected with rΔNt)
1 | CCCC[C@H](NC(=O)[C@H](CCCNC(=N)N)NC(=O)[C@H](CCC(=O)O)NC(=O)[C@@H](NC(=O)[C@H](CO)NC(=O)[C@H](C)NC(=O)[C@H](CC(C)C)NC(=O)[C@H](Cc1c[nH]cn1)NC(=O)[C@H](CCCCN)NC(=O)CNC(=O)[C@H](CC(C)C)NC(=O)[C@H](CC(N)=O)NC(=O)[C@H](Cc1c[nH]cn1)NC(=O)[C@H](CCCC)NC(=O)[C@H](CC(C)C)NC(=O)[C@H](CCC(N)=O)NC(=O)[C@@H](NC(=O)[C@H](CCC(=O)O)NC(=O)[C@H](CO)NC(=O)[C@@H](NC(=O)[C@H](C)N)C(C)C)[C@@H](C)CC)C(C)C)C(=O)N[C@@H](CCC(N)=O)C(=O)N[C@@H](Cc1c[nH]c2ccccc12)C(=O)N[C@@H](CC(C)C)C(=O)N[C@@H](CCCNC(=N)N)C(=O)N[C@@H](CCCCN)C(=O)N[C@@H](CCCCN)C(=O)N[C@@H](CC(C)C)C(=O)N[C@@H](CCC(N)=O)C(=O)N[C@@H](CC(=O)O)C(=O)N[C@H](C(=O)N[C@@H](Cc1c[nH]cn1)C(=O)N[C@@H](CC(N)=O)C(=O)N[C@@H](Cc1ccc(O)cc1)C(N)=O)C(C)C [PTH(1–34), [Nle^8,21,Tyr^34]rPTH-(1–34)NH2] | did not respond | 100 | 100 | responded | – | –
2 | PTH(1–14): Amino-terminal peptide fragment based on the rat PTH sequence, residues 1–14, C-terminally amidated (AVSEIQLMHNLGKH-NH2) | did not respond | – | – | responded | equipotent with the two receptors; also recorded: equivalent activity; also recorded: not affected | only two orders of magnitude weaker
